Assay results published in US20080072337A1, “Braf Expression in Zebrafish and Uses Thereof” (Children's Medical Center Corporation, priority 2004, published 2008).

Tested on: zebrafish
Assay: Examination of DMBA treated zebrafish for melanoma
Format: in vivo
Details: over 10,000 DMBA treated zebrafish examined; unpublished data of the applicants

Cc1c2ccccc2c(C)c2c1ccc1ccccc12 [DMBA]
melanoma identified in treated zebrafish: failed to identify a single melanoma
